Measured values published in paper PMC10046369, “Low-Affinity/High-Selectivity Dopamine Transport Inhibition Sufficient to Rescue Cognitive Functions in the Aging Rat” (Biomolecules, 2023).

What was measured:
Assay in all cases: biochemical
Design in all cases: KINOMEscan competition binding panel, per cent of control
Conditions in all cases: read-out: %Ctrl @ 2800nM
ERK1 = molecular target: T1, ERK1 (Homo sapiens, UniProt P27361)
T1 construct: gene MAPK3
In short: (§1)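 Values are expressed as percent of control, calculated as ((test − positive control)/(negative control − positive control)) × 100, so lower numbers mean stronger hits. Binding was measured by KINOMEscan competition assay in a 450-kinase human panel including disease mutants, using the contractor's validated protocol.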

[1] = molecular target: T2, ABL1(E255K)-phosphorylated (Homo sapiens, UniProt P00519, E255K)
T2 construct: phosphorylated
In short: as §1

RIPK4 = RIPK4 (Homo sapiens, UniProt P57078)
In short: as §1

PIP5K2B = molecular target: T3, PIP5K2B (Homo sapiens, UniProt P78356)
T3 construct: gene PIP4K2B
T3 sequence (P78356 whole entry): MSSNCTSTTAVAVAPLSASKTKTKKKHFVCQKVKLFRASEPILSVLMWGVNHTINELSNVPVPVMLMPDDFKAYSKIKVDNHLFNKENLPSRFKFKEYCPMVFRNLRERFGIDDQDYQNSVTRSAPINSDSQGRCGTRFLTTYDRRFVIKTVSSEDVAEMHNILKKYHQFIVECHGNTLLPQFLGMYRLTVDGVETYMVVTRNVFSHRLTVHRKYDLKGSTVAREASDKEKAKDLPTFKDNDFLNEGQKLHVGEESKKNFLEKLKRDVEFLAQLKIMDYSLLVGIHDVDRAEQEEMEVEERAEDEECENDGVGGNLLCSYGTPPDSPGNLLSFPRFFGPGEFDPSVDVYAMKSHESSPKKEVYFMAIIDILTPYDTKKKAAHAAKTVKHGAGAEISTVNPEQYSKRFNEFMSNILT
In short: as §1

PDGFRB = PDGFRB (Homo sapiens, UniProt P09619)
In short: as §1

DAPK2 = DAPK2 (Homo sapiens, UniProt Q9UIK4)
DAPK2, sequence (Q9UIK4 whole entry): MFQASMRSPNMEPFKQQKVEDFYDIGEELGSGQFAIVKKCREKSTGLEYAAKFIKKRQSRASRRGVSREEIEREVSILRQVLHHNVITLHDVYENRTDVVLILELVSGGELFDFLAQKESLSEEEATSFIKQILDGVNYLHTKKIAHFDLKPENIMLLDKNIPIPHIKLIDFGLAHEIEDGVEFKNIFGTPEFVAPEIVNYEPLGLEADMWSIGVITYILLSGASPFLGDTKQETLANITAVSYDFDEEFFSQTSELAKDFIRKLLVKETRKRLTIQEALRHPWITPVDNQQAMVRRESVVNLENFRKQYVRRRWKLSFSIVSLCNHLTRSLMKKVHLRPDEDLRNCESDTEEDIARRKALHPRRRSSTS
In short: as §1

PCTK1 = molecular target: T4, PCTK1 (Homo sapiens, UniProt Q00536)
T4 construct: gene CDK16
T4 sequence (Q00536 whole entry): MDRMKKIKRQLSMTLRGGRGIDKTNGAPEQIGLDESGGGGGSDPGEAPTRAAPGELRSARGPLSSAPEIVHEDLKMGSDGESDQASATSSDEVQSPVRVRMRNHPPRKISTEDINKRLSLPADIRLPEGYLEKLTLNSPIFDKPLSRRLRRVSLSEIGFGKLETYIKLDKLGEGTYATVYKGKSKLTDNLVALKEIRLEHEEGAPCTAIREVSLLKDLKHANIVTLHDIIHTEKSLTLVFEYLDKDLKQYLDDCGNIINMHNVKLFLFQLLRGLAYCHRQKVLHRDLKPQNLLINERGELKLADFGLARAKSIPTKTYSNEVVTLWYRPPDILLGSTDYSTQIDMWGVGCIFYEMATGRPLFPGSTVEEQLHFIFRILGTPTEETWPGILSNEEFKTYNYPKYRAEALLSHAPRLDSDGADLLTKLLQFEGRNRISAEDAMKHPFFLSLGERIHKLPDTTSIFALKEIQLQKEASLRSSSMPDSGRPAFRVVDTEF
In short: as §1

CSNK1E = CSNK1E (Homo sapiens, UniProt P49674)
In short: as §1

PIK3CA(E542K) = PIK3CA(E542K) (Homo sapiens, UniProt P42336, E542K)
PIK3CA(E542K), sequence (P42336 whole entry E542K): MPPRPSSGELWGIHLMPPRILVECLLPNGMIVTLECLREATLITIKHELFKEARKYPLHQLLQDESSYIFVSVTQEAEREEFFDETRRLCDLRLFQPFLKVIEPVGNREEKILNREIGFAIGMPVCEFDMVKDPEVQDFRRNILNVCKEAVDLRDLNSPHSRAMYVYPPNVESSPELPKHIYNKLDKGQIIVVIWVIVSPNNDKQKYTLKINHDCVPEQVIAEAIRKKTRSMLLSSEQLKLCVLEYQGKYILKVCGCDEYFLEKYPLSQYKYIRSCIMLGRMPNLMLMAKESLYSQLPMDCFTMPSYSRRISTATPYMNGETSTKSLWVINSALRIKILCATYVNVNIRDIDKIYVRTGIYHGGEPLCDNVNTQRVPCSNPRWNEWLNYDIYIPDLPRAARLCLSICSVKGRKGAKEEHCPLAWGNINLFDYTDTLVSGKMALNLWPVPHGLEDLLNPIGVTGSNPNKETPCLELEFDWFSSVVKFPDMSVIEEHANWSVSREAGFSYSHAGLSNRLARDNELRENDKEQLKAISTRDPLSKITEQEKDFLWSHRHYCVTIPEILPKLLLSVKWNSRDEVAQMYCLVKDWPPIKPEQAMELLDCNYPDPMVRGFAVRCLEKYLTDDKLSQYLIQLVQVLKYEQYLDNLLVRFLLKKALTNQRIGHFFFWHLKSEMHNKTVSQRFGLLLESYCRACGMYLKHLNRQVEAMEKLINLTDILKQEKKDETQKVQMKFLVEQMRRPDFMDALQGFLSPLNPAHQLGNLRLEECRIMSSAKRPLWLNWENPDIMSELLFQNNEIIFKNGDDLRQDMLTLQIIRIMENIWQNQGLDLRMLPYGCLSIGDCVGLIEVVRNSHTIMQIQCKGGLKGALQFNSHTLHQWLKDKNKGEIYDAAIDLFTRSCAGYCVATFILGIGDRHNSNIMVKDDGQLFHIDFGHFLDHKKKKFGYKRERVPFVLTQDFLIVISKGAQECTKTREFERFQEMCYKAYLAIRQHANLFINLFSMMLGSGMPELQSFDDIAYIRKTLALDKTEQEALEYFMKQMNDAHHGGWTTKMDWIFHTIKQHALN
In short: as §1

MST1 = molecular target: T5, MST1 (Homo sapiens, UniProt Q13043)
T5 construct: gene STK4
In short: as §1

EPHB6 = EPHB6 (Homo sapiens, UniProt O15197)
In short: as §1

PAK3 = PAK3 (Homo sapiens, UniProt O75914)
PAK3, sequence (O75914 whole entry): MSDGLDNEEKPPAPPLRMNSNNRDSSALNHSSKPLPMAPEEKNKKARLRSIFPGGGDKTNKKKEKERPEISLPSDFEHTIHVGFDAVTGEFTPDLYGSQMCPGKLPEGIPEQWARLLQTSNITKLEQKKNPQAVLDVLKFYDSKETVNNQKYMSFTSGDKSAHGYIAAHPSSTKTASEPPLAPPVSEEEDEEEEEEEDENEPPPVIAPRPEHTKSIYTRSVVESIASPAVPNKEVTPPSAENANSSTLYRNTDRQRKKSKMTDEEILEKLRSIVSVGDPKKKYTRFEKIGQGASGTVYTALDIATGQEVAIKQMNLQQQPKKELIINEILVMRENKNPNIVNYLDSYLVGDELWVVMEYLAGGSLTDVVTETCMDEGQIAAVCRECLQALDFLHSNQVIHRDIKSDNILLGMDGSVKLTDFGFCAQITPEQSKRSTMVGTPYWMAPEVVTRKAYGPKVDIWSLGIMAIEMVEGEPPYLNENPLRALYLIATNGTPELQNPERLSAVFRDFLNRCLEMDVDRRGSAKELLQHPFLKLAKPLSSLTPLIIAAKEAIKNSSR
In short: as §1

ICK = molecular target: T6, ICK (Homo sapiens, UniProt Q9UPZ9)
T6 construct: gene CILK1
T6 sequence (Q9UPZ9 whole entry): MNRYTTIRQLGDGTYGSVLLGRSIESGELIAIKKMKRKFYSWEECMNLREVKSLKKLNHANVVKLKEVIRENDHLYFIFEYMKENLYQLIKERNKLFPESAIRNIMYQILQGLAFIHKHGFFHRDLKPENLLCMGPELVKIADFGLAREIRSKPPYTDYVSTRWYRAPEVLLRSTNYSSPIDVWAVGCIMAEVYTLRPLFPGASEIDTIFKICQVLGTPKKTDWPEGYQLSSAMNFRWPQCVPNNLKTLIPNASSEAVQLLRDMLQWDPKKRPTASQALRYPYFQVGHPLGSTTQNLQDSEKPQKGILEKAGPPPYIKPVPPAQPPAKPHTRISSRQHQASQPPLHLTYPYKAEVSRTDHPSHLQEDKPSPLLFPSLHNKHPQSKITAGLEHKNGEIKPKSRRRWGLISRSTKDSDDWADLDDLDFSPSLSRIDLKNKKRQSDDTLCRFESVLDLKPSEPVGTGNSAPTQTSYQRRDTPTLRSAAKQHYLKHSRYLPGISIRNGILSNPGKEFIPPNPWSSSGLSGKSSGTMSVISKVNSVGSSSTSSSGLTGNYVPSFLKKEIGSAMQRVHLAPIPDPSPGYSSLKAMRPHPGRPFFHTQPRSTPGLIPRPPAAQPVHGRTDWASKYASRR
In short: as §1

BTK = BTK (Homo sapiens, UniProt Q06187)
BTK, sequence (Q06187 whole entry): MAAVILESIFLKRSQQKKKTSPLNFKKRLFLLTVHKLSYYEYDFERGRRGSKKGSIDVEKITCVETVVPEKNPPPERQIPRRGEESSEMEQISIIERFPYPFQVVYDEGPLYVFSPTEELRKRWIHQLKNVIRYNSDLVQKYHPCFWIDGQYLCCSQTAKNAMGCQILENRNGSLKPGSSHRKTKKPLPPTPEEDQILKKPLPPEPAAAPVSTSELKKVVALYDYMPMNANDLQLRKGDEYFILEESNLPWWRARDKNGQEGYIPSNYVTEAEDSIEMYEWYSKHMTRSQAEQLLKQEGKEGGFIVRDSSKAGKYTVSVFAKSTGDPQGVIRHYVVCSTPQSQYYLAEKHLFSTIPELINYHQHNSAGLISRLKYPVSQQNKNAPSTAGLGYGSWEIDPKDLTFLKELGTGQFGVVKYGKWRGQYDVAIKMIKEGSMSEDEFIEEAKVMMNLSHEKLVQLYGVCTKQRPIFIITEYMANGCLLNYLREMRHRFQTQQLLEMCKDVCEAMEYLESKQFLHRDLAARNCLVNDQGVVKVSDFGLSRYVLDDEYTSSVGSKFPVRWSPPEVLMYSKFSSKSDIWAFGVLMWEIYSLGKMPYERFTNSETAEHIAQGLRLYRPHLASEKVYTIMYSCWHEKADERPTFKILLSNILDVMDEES
In short: as §1

DLK = molecular target: T7, DLK (Homo sapiens, UniProt Q12852)
T7 construct: gene MAP3K12
In short: as §1

CDK3 = CDK3 (Homo sapiens, UniProt Q00526)
In short: as §1

MKK7 = molecular target: T8, MKK7 (Homo sapiens, UniProt O14733)
T8 construct: gene MAP2K7
In short: as §1

[2] = molecular target: T9, ABL1(F317I)-phosphorylated (Homo sapiens, UniProt P00519, F317I)
T9 construct: phosphorylated
In short: as §1

GAK = GAK (Homo sapiens, UniProt O14976)
In short: as §1

MEK3 = molecular target: T10, MEK3 (Homo sapiens, UniProt P46734)
T10 construct: gene MAP2K3
In short: as §1

LRRK2 = LRRK2 (Homo sapiens, UniProt Q5S007)
In short: as §1

ANKK1 = ANKK1 (Homo sapiens, UniProt Q8NFD2)
ANKK1, sequence (Q8NFD2 whole entry): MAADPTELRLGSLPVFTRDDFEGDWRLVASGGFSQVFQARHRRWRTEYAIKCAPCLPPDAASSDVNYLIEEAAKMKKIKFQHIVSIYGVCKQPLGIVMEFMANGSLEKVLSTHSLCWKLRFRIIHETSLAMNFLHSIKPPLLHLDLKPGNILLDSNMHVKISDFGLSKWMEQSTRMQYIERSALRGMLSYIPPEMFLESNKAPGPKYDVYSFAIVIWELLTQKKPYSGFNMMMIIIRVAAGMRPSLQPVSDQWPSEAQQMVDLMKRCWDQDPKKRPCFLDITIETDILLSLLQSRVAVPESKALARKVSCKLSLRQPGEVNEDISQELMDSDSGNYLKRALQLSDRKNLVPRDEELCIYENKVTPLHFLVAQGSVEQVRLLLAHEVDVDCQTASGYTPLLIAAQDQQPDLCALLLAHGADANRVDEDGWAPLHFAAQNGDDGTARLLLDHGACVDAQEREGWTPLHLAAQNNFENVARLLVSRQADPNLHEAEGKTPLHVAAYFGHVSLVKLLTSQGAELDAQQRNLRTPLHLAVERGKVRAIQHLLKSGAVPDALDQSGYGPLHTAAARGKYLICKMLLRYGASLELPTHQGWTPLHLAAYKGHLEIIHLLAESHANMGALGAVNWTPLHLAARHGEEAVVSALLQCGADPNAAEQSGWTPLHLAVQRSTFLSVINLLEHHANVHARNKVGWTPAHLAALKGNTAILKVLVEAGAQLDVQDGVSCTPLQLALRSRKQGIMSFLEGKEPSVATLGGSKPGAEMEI
In short: as §1

KIT(L576P) = KIT(L576P) (Homo sapiens, UniProt P10721, L576P)
In short: as §1

PIK3CG = PIK3CG (Homo sapiens, UniProt P48736)
In short: as §1

MAP3K2 = MAP3K2 (Homo sapiens, UniProt Q9Y2U5)
In short: as §1

BRK = molecular target: T11, BRK (Homo sapiens, UniProt Q13882)
T11 construct: gene PTK6
In short: as §1

For [O-][S@@+](Cc1cncs1)C(c1ccccc1)c1ccccc1 [S-CE-123, (S)-5-((Benzhydrylsulfinyl)Methyl)Thiazole], the remaining binding at 2.8 µM (ERK1) was 91%, the remaining binding at 2.8 µM [1] was 73% and the remaining binding at 2.8 µM (RIPK4) was 97%. The remaining binding at 2.8 µM (PIP5K2B) was 100%, the remaining binding at 2.8 µM (PDGFRB) was 99% and the remaining binding at 2.8 µM (DAPK2) was 96%. For the same compound, the remaining binding at 2.8 µM (PCTK1) was 97%, the remaining binding at 2.8 µM (CSNK1E) was 96% and the remaining binding at 2.8 µM (PIK3CA(E542K)) was 88%. For the same compound, the remaining binding at 2.8 µM (MST1) was 97%, the remaining binding at 2.8 µM (EPHB6) was 89% and the remaining binding at 2.8 µM (PAK3) was 70%. The remaining binding at 2.8 µM (ICK) was 91%, the remaining binding at 2.8 µM (BTK) was 100% and the remaining binding at 2.8 µM (DLK) was 100%. The remaining binding at 2.8 µM (CDK3) was 100%, the remaining binding at 2.8 µM (MKK7) was 100% and the remaining binding at 2.8 µM [2] was 92%. It also gave a remaining binding at 2.8 µM (GAK) of 100%, a remaining binding at 2.8 µM (MEK3) of 86% and a remaining binding at 2.8 µM (LRRK2) of 100%. For the same compound, the remaining binding at 2.8 µM (ANKK1) was 100%, the remaining binding at 2.8 µM (KIT(L576P)) was 99% and the remaining binding at 2.8 µM (PIK3CG) was 70%. It also gave a remaining binding at 2.8 µM (MAP3K2) of 100% and a remaining binding at 2.8 µM (BRK) of 96%.
